{"source": "patent US8829007B2", "about": "(priority 2009, dated 2014)", "key": {"[1]": {"tested_on": "A/PR/8/34 influenza virus", "experiment": "microbe, parasite or virus in culture", "type": "cell-based"}, "influenza [2]": {"tested_on": "influenza", "experiment": "In vivo prophylaxis study (FIG. 1), survival of infected mice", "set-up": "species or system Balb/c mice", "settings": "100 mg/kg oral gavage, first dose 2 hours prior to infection, twice daily for 5 days, survival monitored 21 days, P<0.0001 vs vehicle"}, "[3]": {"tested_on": "influenza A virus (A/PR/8/34)", "experiment": "microbe, parasite or virus in culture", "type": "cell-based"}, "influenza [4]": {"tested_on": "influenza", "experiment": "Influenza Therapeutic Mouse Model (Table 6)", "type": "in vivo, mice", "settings": "dosing @ 48 hours post infection with 30 mg/kg BID X 10 days"}, "influenza [5]": {"tested_on": "influenza", "experiment": "In vivo treatment study (FIG. 2), survival of infected mice", "set-up": "species or system Balb/c mice", "settings": "200 mg/kg oral gavage from 24 hours post infection, twice daily for 10 days, survival monitored 21 days, P<0.0001 vs vehicle"}, "[6]": {"settings": "Influenza A virus, PR/8, MDCK, MDCK cells infected with A/PR/8/34, replication of influenza virus (viral RNA, bDNA), class symbols, read-out: EC50 (mean all)"}, "[7]": {"settings": "Influenza A virus, PR/8, MDCK, MDCK cells infected with A/PR/8/34, survival of infected cells, class symbols, read-out: IC50 (mean all)"}, "[8]": {"settings": "Influenza A virus, PR/8, mean all, replication of A/PR/8/34 influenza virus (bDNA assay), read-out: EC50"}, "[9]": {"settings": "Influenza A virus, PR/8, MDCK, mean all, survival of A/PR/8/34 infected MDCK cells (CPE assay), read-out: IC50"}, "[10]": {"settings": "Influenza A virus, PR/8, MDCK, mean all, A/PR/8/34 influenza virus in MDCK cells, bDNA assay, read-out: EC50"}, "[11]": {"settings": "Influenza A virus, PR/8, MDCK, mean all, A/PR/8/34 infected MDCK cells, CPE assay, read-out: IC50"}, "[12]": {"settings": "Influenza A virus, PR/8, MDCK, MDCK cells infected with A/PR/8/34, bDNA viral RNA, read-out: EC50 (mean all)"}, "[13]": {"settings": "Influenza A virus, PR/8, MDCK, MDCK cells infected with A/PR/8/34, cell protection (CPE), read-out: IC50 (mean all)"}}, "note": "Read-outs that look alike come from different tables or passages of the source.", "data": [{"smiles": "COC(=O)N[C@H]1CCC[C@@H](Nc2nc(-c3c[nH]c4ncc(Cl)cc34)ncc2F)C1", "note": "(relative stereo) [Compound 514, Methyl-cis-3-[[2-(5-chloro-1H-pyrrolo[2,3-b]pyridin-3-yl)-5-fluoro-pyrimidin-4-yl]amino]cyclohexylcarbamate]", "values": [{"measurement": "EC50", "setting": "[1]; [6]", "value": "< 5", "unit": "µM"}, {"measurement": "survival", "setting": "influenza [2]", "value": "complete survival"}, {"measurement": "IC50", "setting": "[3]; [7]", "value": "< 5", "unit": "µM"}]}, {"smiles": "O=C(N[C@@H]1CCC[C@H](Nc2nc(-c3c[nH]c4ncc(F)cc34)ncc2F)C1)N1CCOCC1", "note": "[Compound 706, N-[(1R,3S)-3-[[5-fluoro-2-(5-fluoro-1H-pyrrolo[2,3-b]pyridin-3-yl)pyrimidin-4-yl]amino]cyclohexyl]morpholine-4-carboxamide]", "values": [{"measurement": "EC50", "setting": "[1]; Influenza A virus, PR/8, MDCK, mean all, bDNA viral RNA in MDCK cells infected with A/PR/8/34, read-out: EC50", "value": "< 5", "unit": "µM"}, {"measurement": "Percent Survival", "setting": "influenza [4]", "value": 75, "unit": "%"}, {"measurement": "Percent Weight Loss (Day 8)", "setting": "influenza [4]", "value": 27.0, "unit": "%"}, {"measurement": "IC50", "setting": "[3]; Influenza A virus, PR/8, MDCK, mean all, MDCK cells infected with A/PR/8/34, cell protection (CPE), read-out: IC50", "value": "< 5", "unit": "µM"}]}, {"smiles": "O=C(N[C@@H]1CCC[C@H](Nc2nc(-c3c[nH]c4ncc(F)cc34)ncc2F)C1)N1CCCC1", "note": "[Compound 895, N-((1R,3S)-3-(5-fluoro-2-(5-fluoro-1H-pyrrolo[2,3-b]pyridin-3-yl)-pyrimidin-4-ylamino)cyclohexyl)pyrrolidine-1-carboxamide]", "values": [{"measurement": "EC50", "setting": "[1]; Influenza A virus, PR/8, exemplary values in text, replication of A/PR/8/34 influenza virus, read-out: EC50", "value": 0.001, "unit": "µM"}, {"measurement": "EC50", "setting": "[1]; [8]", "value": "< 5", "unit": "µM"}, {"measurement": "Percent Survival", "setting": "influenza [4]", "value": 100, "unit": "%"}, {"measurement": "Percent Weight Loss (Day 8)", "setting": "influenza [4]", "value": 12.8, "unit": "%"}, {"measurement": "IC50", "setting": "[3]; Influenza A virus, PR/8, MDCK, exemplary values in text, survival of A/PR/8/34 infected cells, read-out: IC50", "value": 0.0008, "unit": "µM"}, {"measurement": "IC50", "setting": "[3]; [9]", "value": "< 5", "unit": "µM"}]}, {"smiles": "OC[C@H](O)CN1CCCC(Nc2nc(-c3c[nH]c4ncc(Cl)cc34)ncc2F)C1", "note": "(stereo partly drawn) [Compound 588]", "values": [{"measurement": "EC50", "setting": "[1]; [6]", "value": "< 5", "unit": "µM"}, {"measurement": "survival", "setting": "influenza [5]", "value": "complete survival"}, {"measurement": "IC50", "setting": "[3]; [7]", "value": "< 5", "unit": "µM"}]}, {"smiles": "C[C@H]1NC(=O)O[C@]12CCC[C@H](Nc1nc(-c3c[nH]c4ncc(F)cc34)ncc1F)C2", "note": "(single isomer, unassigned) [Compound 967]", "values": [{"measurement": "EC50", "setting": "[1]; [8]", "value": "< 5", "unit": "µM"}, {"measurement": "Percent Survival", "setting": "influenza [4]", "value": 75, "unit": "%"}, {"measurement": "Percent Weight Loss (Day 8)", "setting": "influenza [4]", "value": 30.9, "unit": "%"}, {"measurement": "IC50", "setting": "[3]; [9]", "value": "< 5", "unit": "µM"}]}, {"smiles": "COc1ccccc1OC(=O)N1CCC[C@H](CNc2nc(-c3c[nH]c4ncc(Cl)cc34)ncc2F)C1", "note": "[Compound 69, (R)-2-methoxyphenyl 3-((2-(5-chloro-1H-pyrrolo[2,3-b]pyridin-3-yl)-5-fluoropyrimidin-4-ylamino)methyl)piperidine-1-carboxylate]", "values": [{"measurement": "EC50", "setting": "[1]; Influenza A virus, PR/8, MDCK, read-out: EC50 (mean all)", "value": "< 5", "unit": "µM"}, {"measurement": "IC50", "setting": "[3]; Influenza A virus, PR/8, MDCK, read-out: IC50 (mean all)", "value": "< 5", "unit": "µM"}]}, {"smiles": "CCCNC(=O)N1CCCC[C@@H]1CNc1nc(-c2c[nH]c3ncccc23)ncc1F", "note": "[Compound 375, (R)-2-((5-fluoro-2-(1H-pyrrolo[2,3-b]pyridin-3-yl)pyrimidin-4-ylamino)methyl)-N-propylpiperidine-1-carboxamide]", "values": [{"measurement": "EC50", "setting": "[1]; [10]", "value": "5 to 10", "unit": "µM"}, {"measurement": "IC50", "setting": "[3]; [11]", "value": "5 to 20", "unit": "µM"}]}, {"smiles": "NC(=O)[C@@H]1CCCC[C@@H]1Nc1nc(-c2c[nH]c3ncc(Cl)cc23)ncc1F", "note": "(relative stereo) [Compound 544, cis-2-(2-(5-chloro-1H-pyrrolo[2,3-b]pyridin-3-yl)-5-fluoropyrimidin-4-ylamino)cyclohexanecarboxamide]", "values": [{"measurement": "EC50", "setting": "[1]; [6]", "value": "< 5", "unit": "µM"}, {"measurement": "IC50", "setting": "[3]; [7]", "value": "> 20", "unit": "µM"}]}, {"smiles": "Fc1cnc(-c2c[nH]c3ncc(Cl)cc23)nc1NC1CCCN(CC2CCCOC2)C1", "note": "(stereo not drawn) [Compound 676]", "values": [{"measurement": "EC50", "setting": "[1]; mean all, bDNA viral RNA in MDCK cells infected with A/PR/8/34, read-out: EC50", "value": "< 5", "unit": "µM"}, {"measurement": "IC50", "setting": "[3]; mean all, MDCK cells infected with A/PR/8/34, cell protection (CPE), read-out: IC50", "value": "< 5", "unit": "µM"}]}, {"smiles": "O=C(c1cccc(C(F)(F)F)c1)N1CCCC[C@@H]1CNc1nc(-c2c[nH]c3ncc(Cl)cc23)ncc1F", "note": "[Compound 210, (R)-(2-((2-(5-chloro-1H-pyrrolo[2,3-b]pyridin-3-yl)-5-fluoropyrimidin-4-ylamino)methyl)piperidin-1-yl)(3-(trifluoromethyl)phenyl)methanone]", "values": [{"measurement": "EC50", "setting": "[1]; [12]", "value": "5 to 10", "unit": "µM"}, {"measurement": "IC50", "setting": "[3]; [13]", "value": "> 20", "unit": "µM"}]}, {"smiles": "CC(C)S(=O)(=O)N1CCC[C@@H](Nc2nc(-c3c[nH]c4ncc(Cl)cc34)ncc2F)C1", "note": "[Compound 322, (R)-2-(5-chloro-1H-pyrrolo[2,3-b]pyridin-3-yl)-5-fluoro-N-(1-(isopropylsulfonyl)-piperidin-3-yl)pyrimidin-4-amine]", "values": [{"measurement": "EC50", "setting": "[1]; [10]", "value": "< 5", "unit": "µM"}, {"measurement": "IC50", "setting": "[3]; [11]", "value": "> 20", "unit": "µM"}]}, {"smiles": "O=C(Cc1cccnc1)N1CCC[C@@H](CNc2nc(-c3c[nH]c4ncc(Cl)cc34)ncc2F)C1", "note": "[Compound 47, (S)-1-(3-((2-(5-chloro-1H-pyrrolo[2,3-b]pyridin-3-yl)-5-fluoropyrimidin-4-ylamino)methyl)piperidin-1-yl)-2-(pyridin-3-yl)ethanone]", "values": [{"measurement": "EC50", "setting": "[1]; [12]", "value": "< 5", "unit": "µM"}, {"measurement": "IC50", "setting": "[3]; [13]", "value": "< 5", "unit": "µM"}]}, {"smiles": "O=C(CCl)N1CCC[C@H](CNc2nc(-c3c[nH]c4ncc(Cl)cc34)ncc2F)C1", "note": "[Compound 92, (R)-2-chloro-1-(3-((2-(5-chloro-1H-pyrrolo[2,3-b]pyridin-3-yl)-5-fluoropyrimidin-4-ylamino)methyl)piperidin-1-yl)ethanone]", "values": [{"measurement": "EC50", "setting": "[1]; [12]", "value": "< 5", "unit": "µM"}, {"measurement": "IC50", "setting": "[3]; [13]", "value": "< 5", "unit": "µM"}]}]}
